Results published in ChEMBL document CHEMBL1143091, “Synthesis and SAR studies of biaryloxy-substituted triazoles as antifungal agents” (2008).
In brackets after ≈: the same amount, converted by molar mass.

Tests used:
Candida albicans = assay: Antimicrobial activity against Candida albicans ATCC 76615; assay type: functional
Trichophyton rubrum = assay: Antimicrobial activity against Trichophyton rubrum isolates; assay type: functional
Aspergillus fumigatus = assay: Antimicrobial activity against Aspergillus fumigatus isolates; assay type: functional
Cryptococcus neoformans = assay: Antimicrobial activity against Cryptococcus neoformans ATCC 32609; assay type: functional
Fonsecaea compacta = assay: Antimicrobial activity against Fonsecaea compacta isolates; assay type: functional
Candida tropicalis = assay: Antimicrobial activity against Candida tropicalis isolates; assay type: functional
Candida parapsilosis = assay: Antimicrobial activity against Candida parapsilosis isolates; conditions: Lodderomyces parapsilosis
Nannizzia gypsea = assay: Antimicrobial activity against Microsporum gypseum isolates; assay type: functional

Structure (SMILES)	MIC (Candida albicans)	MIC (Trichophyton rubrum)	MIC (Aspergillus fumigatus)	MIC (Cryptococcus neoformans)	MIC (Fonsecaea compacta)	MIC (Candida tropicalis)	MIC (Candida parapsilosis)	MIC (Nannizzia gypsea)
C[C@@H](c1ncncc1F)[C@](O)(Cn1cncn1)c1ccc(F)cc1F [VORICONAZOLE]	0.25 µg/mL (≈ 0.716 µM)	0.0156 µg/mL (≈ 0.0447 µM)	0.25 µg/mL (≈ 0.716 µM)	1 µg/mL (≈ 2.86 µM)	0.0625 µg/mL (≈ 0.179 µM)	0.0156 µg/mL (≈ 0.0447 µM)	0.0625 µg/mL (≈ 0.179 µM)	0.0156 µg/mL (≈ 0.0447 µM)
CNCc1ccc(-c2ccc(OCC(O)(Cn3cncn3)c3ccc(F)cc3F)cc2)cc1 (configuration not stated)	0.25 µg/mL (≈ 0.555 µM)	0.0625 µg/mL (≈ 0.139 µM)	> 64 µg/mL	64 µg/mL (≈ 142 µM)	4 µg/mL (≈ 8.88 µM)	0.25 µg/mL (≈ 0.555 µM)	0.25 µg/mL (≈ 0.555 µM)	1 µg/mL (≈ 2.22 µM)
O=C(Nc1ccc(-c2ccc(OCC(O)(Cn3cncn3)c3ccc(F)cc3F)cc2)cn1)c1ccc(CCl)cc1 (configuration not stated)	0.0156 µg/mL (≈ 0.0271 µM)	0.25 µg/mL (≈ 0.434 µM)	> 64 µg/mL	0.25 µg/mL (≈ 0.434 µM)	1 µg/mL (≈ 1.74 µM)	0.0625 µg/mL (≈ 0.109 µM)	0.0625 µg/mL (≈ 0.109 µM)	1 µg/mL (≈ 1.74 µM)
CCNCc1ccc(-c2ccc(OCC(O)(Cn3cncn3)c3ccc(F)cc3F)cc2)cc1 (configuration not stated)	1 µg/mL (≈ 2.15 µM)	0.25 µg/mL (≈ 0.538 µM)	> 64 µg/mL	16 µg/mL (≈ 34.4 µM)	1 µg/mL (≈ 2.15 µM)	0.25 µg/mL (≈ 0.538 µM)	0.25 µg/mL (≈ 0.538 µM)	1 µg/mL (≈ 2.15 µM)
C[C@@H]1COC[C@H](C)N1Cc1ccc(C(=O)Nc2ccc(-c3ccc(OCC(O)(Cn4cncn4)c4ccc(F)cc4F)cc3)cn2)cc1 (some centres not stated)	0.0625 µg/mL (≈ 0.0955 µM)	> 64 µg/mL	> 64 µg/mL	4 µg/mL (≈ 6.11 µM)	16 µg/mL (≈ 24.4 µM)	0.0625 µg/mL (≈ 0.0955 µM)	0.0625 µg/mL (≈ 0.0955 µM)	> 64 µg/mL
OC(COc1ccc(-c2ccc(NCc3cccc(Cl)c3)nc2)cc1)(Cn1cncn1)c1ccc(F)cc1F (configuration not stated)	4 µg/mL (≈ 7.3 µM)	4 µg/mL (≈ 7.3 µM)	> 64 µg/mL	4 µg/mL (≈ 7.3 µM)	4 µg/mL (≈ 7.3 µM)	0.25 µg/mL (≈ 0.456 µM)	0.25 µg/mL (≈ 0.456 µM)	1 µg/mL (≈ 1.82 µM)
OC(COc1ccc(-c2ccc(CNc3cccc(Cl)c3)cc2)cc1)(Cn1cncn1)c1ccc(F)cc1F (configuration not stated)	0.25 µg/mL (≈ 0.457 µM)	1 µg/mL (≈ 1.83 µM)	> 64 µg/mL	> 64 µg/mL	> 64 µg/mL	0.25 µg/mL (≈ 0.457 µM)	0.25 µg/mL (≈ 0.457 µM)	> 64 µg/mL
CCN(CC)Cc1ccc(C(=O)Nc2ccc(-c3ccc(OCC(O)(Cn4cncn4)c4ccc(F)cc4F)cc3)cn2)cc1 (configuration not stated)	0.0625 µg/mL (≈ 0.102 µM)	1 µg/mL (≈ 1.63 µM)	> 64 µg/mL	4 µg/mL (≈ 6.53 µM)	0.25 µg/mL (≈ 0.408 µM)	0.0625 µg/mL (≈ 0.102 µM)	0.25 µg/mL (≈ 0.408 µM)	1 µg/mL (≈ 1.63 µM)
O=C(Nc1ccc(-c2ccc(OCC(O)(Cn3cncn3)c3ccc(F)cc3F)cc2)cn1)c1ccc(CN2CCCCC2)cc1 (configuration not stated)	0.0625 µg/mL (≈ 0.1 µM)	0.25 µg/mL (≈ 0.4 µM)	4 µg/mL (≈ 6.4 µM)	1 µg/mL (≈ 1.6 µM)	1 µg/mL (≈ 1.6 µM)	0.0625 µg/mL (≈ 0.1 µM)	0.0625 µg/mL (≈ 0.1 µM)	1 µg/mL (≈ 1.6 µM)
CCC(C)n1ncn(-c2ccc(N3CCN(c4ccc(OC[C@H]5CO[C@](Cn6cncn6)(c6ccc(Cl)cc6Cl)O5)cc4)CC3)cc2)c1=O (some centres not stated) [ITRACONAZOLE]	0.5 µg/mL (≈ 0.709 µM)	0.0156 µg/mL (≈ 0.0221 µM)	1 µg/mL (≈ 1.42 µM)	1 µg/mL (≈ 1.42 µM)	0.0625 µg/mL (≈ 0.0886 µM)	0.25 µg/mL (≈ 0.354 µM)	0.0312 µg/mL (≈ 0.0442 µM)	0.0625 µg/mL (≈ 0.0886 µM)
Nc1ccc(-c2ccc(OCC(O)(Cn3cncn3)c3ccc(F)cc3F)cc2)cn1 (configuration not stated)	0.0625 µg/mL (≈ 0.148 µM)	0.0156 µg/mL (≈ 0.0368 µM)	4 µg/mL (≈ 9.45 µM)	64 µg/mL (≈ 151 µM)	0.0625 µg/mL (≈ 0.148 µM)	0.25 µg/mL (≈ 0.59 µM)	0.25 µg/mL (≈ 0.59 µM)	0.25 µg/mL (≈ 0.59 µM)
OC(COc1ccc(-c2ccc(NCc3ccccc3)nc2)cc1)(Cn1cncn1)c1ccc(F)cc1F (configuration not stated)	0.25 µg/mL (≈ 0.487 µM)	0.25 µg/mL (≈ 0.487 µM)	4 µg/mL (≈ 7.79 µM)	1 µg/mL (≈ 1.95 µM)	4 µg/mL (≈ 7.79 µM)	0.25 µg/mL (≈ 0.487 µM)	0.0625 µg/mL (≈ 0.122 µM)	> 64 µg/mL
OC(Cn1cncn1)(Cn1cncn1)c1ccc(F)cc1F [FLUCONAZOLE]	16 µg/mL (≈ 52.2 µM)	1 µg/mL (≈ 3.27 µM)	> 64 µg/mL	0.25 µg/mL (≈ 0.816 µM)	16 µg/mL (≈ 52.2 µM)	1 µg/mL (≈ 3.27 µM)	4 µg/mL (≈ 13.1 µM)	1 µg/mL (≈ 3.27 µM)
O=C(CCl)Nc1ccc(-c2ccc(OCC(O)(Cn3cncn3)c3ccc(F)cc3F)cc2)cn1 (configuration not stated)	0.25 µg/mL (≈ 0.5 µM)	0.25 µg/mL (≈ 0.5 µM)	> 64 µg/mL	1 µg/mL (≈ 2 µM)	1 µg/mL (≈ 2 µM)	0.25 µg/mL (≈ 0.5 µM)	0.25 µg/mL (≈ 0.5 µM)	1 µg/mL (≈ 2 µM)
CN(C/C=C/C#CC(C)(C)C)Cc1cccc2ccccc12 [TERBINAFINE]	1 µg/mL (≈ 3.43 µM)	0.0625 µg/mL (≈ 0.214 µM)	0.0625 µg/mL (≈ 0.214 µM)	0.25 µg/mL (≈ 0.858 µM)	0.0625 µg/mL (≈ 0.214 µM)	0.25 µg/mL (≈ 0.858 µM)	0.25 µg/mL (≈ 0.858 µM)	0.0156 µg/mL (≈ 0.0535 µM)
CC(=O)N1CCN(c2ccc(OCC3COC(Cn4ccnc4)(c4ccc(Cl)cc4Cl)O3)cc2)CC1 (configuration not stated) [KETOCONAZOLE]	0.25 µg/mL (≈ 0.47 µM)	0.25 µg/mL (≈ 0.47 µM)	1 µg/mL (≈ 1.88 µM)	0.0156 µg/mL (≈ 0.0294 µM)	0.25 µg/mL (≈ 0.47 µM)	0.0625 µg/mL (≈ 0.118 µM)	0.0625 µg/mL (≈ 0.118 µM)	0.25 µg/mL (≈ 0.47 µM)
CNCC(=O)Nc1ccc(-c2ccc(OCC(O)(Cn3cncn3)c3ccc(F)cc3F)cc2)cn1 (configuration not stated)	0.0625 µg/mL (≈ 0.126 µM)	1 µg/mL (≈ 2.02 µM)	4 µg/mL (≈ 8.09 µM)	16 µg/mL (≈ 32.4 µM)	1 µg/mL (≈ 2.02 µM)	0.25 µg/mL (≈ 0.506 µM)	0.25 µg/mL (≈ 0.506 µM)	1 µg/mL (≈ 2.02 µM)
O=C(CN1CCNCC1)Nc1ccc(-c2ccc(OCC(O)(Cn3cncn3)c3ccc(F)cc3F)cc2)cn1 (configuration not stated)	16 µg/mL (≈ 29.1 µM)	1 µg/mL (≈ 1.82 µM)	> 64 µg/mL	64 µg/mL (≈ 116 µM)	1 µg/mL (≈ 1.82 µM)	1 µg/mL (≈ 1.82 µM)	4 µg/mL (≈ 7.28 µM)	1 µg/mL (≈ 1.82 µM)
C[C@@H]1[C@H](O)[C@@H](C)/C=C/C=C/C=C/C=C/C=C/C=C/C=C/[C@H](O[C@@H]2O[C@H](C)[C@@H](O)[C@H](N)[C@@H]2O)C[C@@H]2O[C@](O)(C[C@@H](O)C[C@@H](O)[C@H](O)CC[C@@H](O)C[C@@H](O)CC(=O)O[C@H]1C)C[C@H](O)[C@H]2C(=O)O [AMPHOTERICIN B]	0.25 µg/mL (≈ 0.271 µM)	16 µg/mL (≈ 17.3 µM)	16 µg/mL (≈ 17.3 µM)	1 µg/mL (≈ 1.08 µM)	16 µg/mL (≈ 17.3 µM)	4 µg/mL (≈ 4.33 µM)	1 µg/mL (≈ 1.08 µM)	1 µg/mL (≈ 1.08 µM)
O=Cc1ccc(-c2ccc(OCC(O)(Cn3cncn3)c3ccc(F)cc3F)cc2)cc1 (configuration not stated)	0.0625 µg/mL (≈ 0.144 µM)	1 µg/mL (≈ 2.3 µM)	> 64 µg/mL	1 µg/mL (≈ 2.3 µM)	0.25 µg/mL (≈ 0.574 µM)	0.25 µg/mL (≈ 0.574 µM)	> 64 µg/mL	0.25 µg/mL (≈ 0.574 µM)
CCCCCCCNc1ccc(-c2ccc(OCC(O)(Cn3cncn3)c3ccc(F)cc3F)cc2)cn1 (configuration not stated)	0.25 µg/mL (≈ 0.479 µM)	0.25 µg/mL (≈ 0.479 µM)	> 64 µg/mL	1 µg/mL (≈ 1.92 µM)	1 µg/mL (≈ 1.92 µM)	0.25 µg/mL (≈ 0.479 µM)	1 µg/mL (≈ 1.92 µM)	1 µg/mL (≈ 1.92 µM)
OCCNCc1ccc(-c2ccc(OCC(O)(Cn3cncn3)c3ccc(F)cc3F)cc2)cc1 (configuration not stated)	4 µg/mL (≈ 8.32 µM)	1 µg/mL (≈ 2.08 µM)	> 64 µg/mL	64 µg/mL (≈ 133 µM)	16 µg/mL (≈ 33.3 µM)	1 µg/mL (≈ 2.08 µM)	1 µg/mL (≈ 2.08 µM)	16 µg/mL (≈ 33.3 µM)
Cc1ccc(C(=O)Nc2ccc(-c3ccc(OCC(O)(Cn4cncn4)c4ccc(F)cc4F)cc3)cn2)cc1 (configuration not stated)	0.0625 µg/mL (≈ 0.115 µM)	0.0625 µg/mL (≈ 0.115 µM)	> 64 µg/mL	0.25 µg/mL (≈ 0.462 µM)	1 µg/mL (≈ 1.85 µM)	0.0625 µg/mL (≈ 0.115 µM)	0.0625 µg/mL (≈ 0.115 µM)	0.25 µg/mL (≈ 0.462 µM)
Oc1ccccc1CNc1ccc(-c2ccc(OCC(O)(Cn3cncn3)c3ccc(F)cc3F)cc2)cn1 (configuration not stated)	0.0625 µg/mL (≈ 0.118 µM)	0.0625 µg/mL (≈ 0.118 µM)	64 µg/mL (≈ 121 µM)	> 64 µg/mL	0.25 µg/mL (≈ 0.472 µM)	0.0625 µg/mL (≈ 0.118 µM)	0.0625 µg/mL (≈ 0.118 µM)	0.0625 µg/mL (≈ 0.118 µM)
